# Experimental data reported in ChEMBL document CHEMBL2057188, “Hybridizing ability and nuclease resistance profile of backbone modified cationic phosphorothioate oligonucleotides” (Bioorg Med Chem, 2012).
# Columns and labels:
# Format in all cases: nucleic-acid assay
# Nucleic Acid [1] = assay: DNA hybridizing activity at single stranded DNA assessed as thermal stability of duplexes formed between compound and complimentary ssDNA by measuring melting temperature at 4 uM in presence of 10 mM pH 7.2 sodium phosphate buffer containing 100 mM NaCl by UV based melting experiment
# Nucleic Acid [2] = assay: (§1) DNA hybridizing activity at 22 bp double stranded DNA assessed as thermal stability of duplexes formed between compound and complimentary dsDNA by measuring melting temperature at 1.5 uM in presence of 7 mM pH 5.5 sodium phosphate buffer containing 140 mM K, 10 mM MgCl2 by UV based melting experiment
# Nucleic Acid [3] = assay: (§2) DNA hybridizing activity at single stranded RNA assessed as thermal stability of duplexes formed between compound and complimentary ssRNA by measuring change in melting temperature at 4 uM in presence of 10 mM pH 7.2 sodium phosphate buffer containing 100 mM NaCl by UV based melting experiment relative to untreated control
# Nucleic Acid [4] = assay: as §1, with “measuring change in” for “measuring”
# Nucleic Acid [5] = assay: DNA hybridizing activity at single stranded RNA assessed as thermal stability of duplexes formed between compound and complimentary ssRNA by measuring melting temperature at 4 uM in presence of 10 mM pH 7.2 sodium phosphate buffer containing 100 mM NaCl by UV based melting experiment
# Nucleic Acid [6] = assay: as §2, with “DNA” for “RNA”, “ssDNA” for “ssRNA”
Tm (Nucleic Acid [1]),Tm (Nucleic Acid [2]),Tm (Nucleic Acid [5]),SMILES,ΔTm (Nucleic Acid [3]),ΔTm (Nucleic Acid [4]),ΔTm (Nucleic Acid [6])
45 °C,30 °C,45 °C,Cc1cn([C@H]2C[C@H](OP(=O)(O)OC[C@H]3O[C@@H](n4cc(C)c(=O)[nH]c4=O)C[C@@H]3OP(=O)(O)OC[C@H]3O[C@@H](n4cc(C)c(=O)[nH]c4=O)C[C@@H]3O[P@@](=O)(OC[C@H]3O[C@@H](n4cc(C)c(=O)[nH]c4=O)C[C@@H]3OP(=O)(O)OC[C@H]3O[C@@H](n4cc(C)c(=O)[nH]c4=O)C[C@@H]3OP(=O)(O)OC[C@H]3O[C@@H](n4cc(C)c(=O)[nH]c4=O)C[C@@H]3OP(=O)(O)OC[C@H]3O[C@@H](n4ccc(N)nc4=O)C[C@@H]3OP(=O)(O)OC[C@H]3O[C@@H](n4ccc(N)nc4=O)C[C@@H]3OP(=O)(O)OC[C@H]3O[C@@H](n4ccc(N)nc4=O)C[C@@H]3OP(=O)(O)O)SCCNCCN)[C@@H](COP(=O)(O)O[C@H]3C[C@H](n4ccc(N)nc4=O)O[C@@H]3COP(=O)(O)O[C@H]3C[C@H](n4ccc(N)nc4=O)O[C@@H]3COP(=O)(O)O[C@H]3C[C@H](n4ccc(N)nc4=O)O[C@@H]3CO)O2)c(=O)[nH]c1=O,-1 °C,5 °C,3 °C
40 °C,25 °C,44 °C,Cc1cn([C@H]2C[C@H](OP(=O)(O)OC[C@H]3O[C@@H](n4cc(C)c(=O)[nH]c4=O)C[C@@H]3OP(=O)(O)OC[C@H]3O[C@@H](n4cc(C)c(=O)[nH]c4=O)C[C@@H]3O[P@](=O)(OC[C@H]3O[C@@H](n4cc(C)c(=O)[nH]c4=O)C[C@@H]3OP(=O)(O)OC[C@H]3O[C@@H](n4cc(C)c(=O)[nH]c4=O)C[C@@H]3OP(=O)(O)OC[C@H]3O[C@@H](n4cc(C)c(=O)[nH]c4=O)C[C@@H]3OP(=O)(O)OC[C@H]3O[C@@H](n4ccc(N)nc4=O)C[C@@H]3OP(=O)(O)OC[C@H]3O[C@@H](n4ccc(N)nc4=O)C[C@@H]3OP(=O)(O)OC[C@H]3O[C@@H](n4ccc(N)nc4=O)C[C@@H]3OP(=O)(O)O)SCCNCCN)[C@@H](COP(=O)(O)O[C@H]3C[C@H](n4ccc(N)nc4=O)O[C@@H]3COP(=O)(O)O[C@H]3C[C@H](n4ccc(N)nc4=O)O[C@@H]3COP(=O)(O)O[C@H]3C[C@H](n4ccc(N)nc4=O)O[C@@H]3CO)O2)c(=O)[nH]c1=O,-2 °C,-1 °C,-2 °C
40 °C,24 °C,44 °C,Cc1cn([C@H]2C[C@H](OP(=O)(O)OC[C@H]3O[C@@H](n4cc(C)c(=O)[nH]c4=O)C[C@@H]3OP(=O)(O)OC[C@H]3O[C@@H](n4cc(C)c(=O)[nH]c4=O)C[C@@H]3O[P@](=O)(OC[C@H]3O[C@@H](n4cc(C)c(=O)[nH]c4=O)C[C@@H]3OP(=O)(O)OC[C@H]3O[C@@H](n4cc(C)c(=O)[nH]c4=O)C[C@@H]3OP(=O)(O)OC[C@H]3O[C@@H](n4cc(C)c(=O)[nH]c4=O)C[C@@H]3OP(=O)(O)OC[C@H]3O[C@@H](n4ccc(N)nc4=O)C[C@@H]3OP(=O)(O)OC[C@H]3O[C@@H](n4ccc(N)nc4=O)C[C@@H]3OP(=O)(O)OC[C@H]3O[C@@H](n4ccc(N)nc4=O)C[C@@H]3OP(=O)(O)O)SCCN3CCNCC3)[C@@H](COP(=O)(O)O[C@H]3C[C@H](n4ccc(N)nc4=O)O[C@@H]3COP(=O)(O)O[C@H]3C[C@H](n4ccc(N)nc4=O)O[C@@H]3COP(=O)(O)O[C@H]3C[C@H](n4ccc(N)nc4=O)O[C@@H]3CO)O2)c(=O)[nH]c1=O,-2 °C,-2 °C,-2 °C
42 °C,25 °C,46 °C,Cc1cn([C@H]2C[C@H](OP(=O)(O)OC[C@H]3O[C@@H](n4cc(C)c(=O)[nH]c4=O)C[C@@H]3OP(=O)(O)OC[C@H]3O[C@@H](n4cc(C)c(=O)[nH]c4=O)C[C@@H]3O[P@](=O)(S)OC[C@H]3O[C@@H](n4cc(C)c(=O)[nH]c4=O)C[C@@H]3OP(=O)(O)OC[C@H]3O[C@@H](n4cc(C)c(=O)[nH]c4=O)C[C@@H]3OP(=O)(O)OC[C@H]3O[C@@H](n4cc(C)c(=O)[nH]c4=O)C[C@@H]3OP(=O)(O)OC[C@H]3O[C@@H](n4ccc(N)nc4=O)C[C@@H]3OP(=O)(O)OC[C@H]3O[C@@H](n4ccc(N)nc4=O)C[C@@H]3OP(=O)(O)OC[C@H]3O[C@@H](n4ccc(N)nc4=O)C[C@@H]3OP(=O)(O)O)[C@@H](COP(=O)(O)O[C@H]3C[C@H](n4ccc(N)nc4=O)O[C@@H]3COP(=O)(O)O[C@H]3C[C@H](n4ccc(N)nc4=O)O[C@@H]3COP(=O)(O)O[C@H]3C[C@H](n4ccc(N)nc4=O)O[C@@H]3CO)O2)c(=O)[nH]c1=O,–,–,–
44 °C,29 °C,48 °C,Cc1cn([C@H]2C[C@H](OP(=O)(O)O)[C@@H](COP(=O)(O)O[C@H]3C[C@H](n4ccc(N)nc4=O)O[C@@H]3COP(=O)(O)O[C@H]3C[C@H](n4ccc(N)nc4=O)O[C@@H]3COP(=O)(O)O[C@H]3C[C@H](n4cc(C)c(=O)[nH]c4=O)O[C@@H]3COP(=O)(O)O[C@H]3C[C@H](n4cc(C)c(=O)[nH]c4=O)O[C@@H]3COP(=O)(O)O[C@H]3C[C@H](n4cc(C)c(=O)[nH]c4=O)O[C@@H]3COP(=O)(O)O[C@H]3C[C@H](n4cc(C)c(=O)[nH]c4=O)O[C@@H]3COP(=O)(O)O[C@H]3C[C@H](n4cc(C)c(=O)[nH]c4=O)O[C@@H]3COP(=O)(O)O[C@H]3C[C@H](n4cc(C)c(=O)[nH]c4=O)O[C@@H]3COP(=O)(O)O[C@H]3C[C@H](n4ccc(N)nc4=O)O[C@@H]3COP(=O)(O)O[C@H]3C[C@H](n4ccc(N)nc4=O)O[C@@H]3COP(=O)(O)O[C@H]3C[C@H](n4ccc(N)nc4=O)O[C@@H]3CO)O2)c(=O)[nH]c1=O,–,–,–
42 °C,26 °C,46 °C,Cc1cn([C@H]2C[C@H](OP(=O)(O)OC[C@H]3O[C@@H](n4cc(C)c(=O)[nH]c4=O)C[C@@H]3OP(=O)(O)OC[C@H]3O[C@@H](n4cc(C)c(=O)[nH]c4=O)C[C@@H]3O[P@@](=O)(S)OC[C@H]3O[C@@H](n4cc(C)c(=O)[nH]c4=O)C[C@@H]3OP(=O)(O)OC[C@H]3O[C@@H](n4cc(C)c(=O)[nH]c4=O)C[C@@H]3OP(=O)(O)OC[C@H]3O[C@@H](n4cc(C)c(=O)[nH]c4=O)C[C@@H]3OP(=O)(O)OC[C@H]3O[C@@H](n4ccc(N)nc4=O)C[C@@H]3OP(=O)(O)OC[C@H]3O[C@@H](n4ccc(N)nc4=O)C[C@@H]3OP(=O)(O)OC[C@H]3O[C@@H](n4ccc(N)nc4=O)C[C@@H]3OP(=O)(O)O)[C@@H](COP(=O)(O)O[C@H]3C[C@H](n4ccc(N)nc4=O)O[C@@H]3COP(=O)(O)O[C@H]3C[C@H](n4ccc(N)nc4=O)O[C@@H]3COP(=O)(O)O[C@H]3C[C@H](n4ccc(N)nc4=O)O[C@@H]3CO)O2)c(=O)[nH]c1=O,–,–,–

SMILES,Tm (Nucleic Acid [1]),Tm (Nucleic Acid [2]),Tm (Nucleic Acid [5]),ΔTm (Nucleic Acid [3]),ΔTm (Nucleic Acid [4]),ΔTm (Nucleic Acid [6])
Cc1cn([C@H]2C[C@H](OP(=O)(O)OC[C@H]3O[C@@H](n4cc(C)c(=O)[nH]c4=O)C[C@@H]3OP(=O)(O)OC[C@H]3O[C@@H](n4cc(C)c(=O)[nH]c4=O)C[C@@H]3O[P@@](=O)(OC[C@H]3O[C@@H](n4cc(C)c(=O)[nH]c4=O)C[C@@H]3OP(=O)(O)OC[C@H]3O[C@@H](n4cc(C)c(=O)[nH]c4=O)C[C@@H]3OP(=O)(O)OC[C@H]3O[C@@H](n4cc(C)c(=O)[nH]c4=O)C[C@@H]3OP(=O)(O)OC[C@H]3O[C@@H](n4ccc(N)nc4=O)C[C@@H]3OP(=O)(O)OC[C@H]3O[C@@H](n4ccc(N)nc4=O)C[C@@H]3OP(=O)(O)OC[C@H]3O[C@@H](n4ccc(N)nc4=O)C[C@@H]3OP(=O)(O)O)SCCCN)[C@@H](COP(=O)(O)O[C@H]3C[C@H](n4ccc(N)nc4=O)O[C@@H]3COP(=O)(O)O[C@H]3C[C@H](n4ccc(N)nc4=O)O[C@@H]3COP(=O)(O)O[C@H]3C[C@H](n4ccc(N)nc4=O)O[C@@H]3CO)O2)c(=O)[nH]c1=O,43 °C,29 °C,46 °C,0 °C,4 °C,1 °C
Cc1cn([C@H]2C[C@H](OP(=O)(O)OC[C@H]3O[C@@H](n4cc(C)c(=O)[nH]c4=O)C[C@@H]3OP(=O)(O)OC[C@H]3O[C@@H](n4cc(C)c(=O)[nH]c4=O)C[C@@H]3O[P@@](=O)(OC[C@H]3O[C@@H](n4cc(C)c(=O)[nH]c4=O)C[C@@H]3OP(=O)(O)OC[C@H]3O[C@@H](n4cc(C)c(=O)[nH]c4=O)C[C@@H]3OP(=O)(O)OC[C@H]3O[C@@H](n4cc(C)c(=O)[nH]c4=O)C[C@@H]3OP(=O)(O)OC[C@H]3O[C@@H](n4ccc(N)nc4=O)C[C@@H]3OP(=O)(O)OC[C@H]3O[C@@H](n4ccc(N)nc4=O)C[C@@H]3OP(=O)(O)OC[C@H]3O[C@@H](n4ccc(N)nc4=O)C[C@@H]3OP(=O)(O)O)SCCCCCN)[C@@H](COP(=O)(O)O[C@H]3C[C@H](n4ccc(N)nc4=O)O[C@@H]3COP(=O)(O)O[C@H]3C[C@H](n4ccc(N)nc4=O)O[C@@H]3COP(=O)(O)O[C@H]3C[C@H](n4ccc(N)nc4=O)O[C@@H]3CO)O2)c(=O)[nH]c1=O,44 °C,27 °C,44 °C,-2 °C,2 °C,2 °C
Cc1cn([C@H]2C[C@H](OP(=O)(O)OC[C@H]3O[C@@H](n4cc(C)c(=O)[nH]c4=O)C[C@@H]3OP(=O)(O)OC[C@H]3O[C@@H](n4cc(C)c(=O)[nH]c4=O)C[C@@H]3O[P@](=O)(OC[C@H]3O[C@@H](n4cc(C)c(=O)[nH]c4=O)C[C@@H]3OP(=O)(O)OC[C@H]3O[C@@H](n4cc(C)c(=O)[nH]c4=O)C[C@@H]3OP(=O)(O)OC[C@H]3O[C@@H](n4cc(C)c(=O)[nH]c4=O)C[C@@H]3OP(=O)(O)OC[C@H]3O[C@@H](n4ccc(N)nc4=O)C[C@@H]3OP(=O)(O)OC[C@H]3O[C@@H](n4ccc(N)nc4=O)C[C@@H]3OP(=O)(O)OC[C@H]3O[C@@H](n4ccc(N)nc4=O)C[C@@H]3OP(=O)(O)O)SCCCN3CCNCC3)[C@@H](COP(=O)(O)O[C@H]3C[C@H](n4ccc(N)nc4=O)O[C@@H]3COP(=O)(O)O[C@H]3C[C@H](n4ccc(N)nc4=O)O[C@@H]3COP(=O)(O)O[C@H]3C[C@H](n4ccc(N)nc4=O)O[C@@H]3CO)O2)c(=O)[nH]c1=O,41 °C,23 °C,43 °C,-3 °C,-3 °C,-1 °C
